Source: US20260256792A1, “TREATMENT OF CHRONIC SPONTANEOUS URTICARIA BY ADMINISTERING (R)-2-[3-[4-AMINO-3-(2-FLUORO-4-PHENOXY-PHENYL)PYRAZOLO[3,4-D]PYRIMIDIN-1-YL]PIPERIDINE-1-CARBONYL]-4-METHYL-4-[4-(OXETAN-3-YL)PIPERAZIN-1-YL]PENT-2-ENENITRILE” (priority 2023, published 2026)

Tested on: moderate-to-severe chronic spontaneous urticaria (CSU)
Test: Phase 2 CSU study: urticaria activity score over 7 days (UAS7)
Assay type: in vivo, human
Conditions: Omalizumab-Naïve
Description: The study comprises a 12 week, randomized, double-blind, placebo-controlled, multi-center, dose-ranging efficacy and safety phase, followed by a 40 week open label extension (OLE) phase (see FIG. 1). The study consists of three phases and an optional OLE phase. […] Clinically, CSU is characterized by the spontaneous and recurrent appearance of pruritic hives. The proposed primary endpoints were the UAS7 at Week 12 in EU and EU reference countries and the ISS7 in the US. Regardless of where a participant was from, all assessments were the same. The UAS7 score is a composite score containing both the HSS7 and the ISS7. This allowed a global assessment of the two key components of urticaria: hives and itch. […] The UAS is a validated PRO measure. […] The daily UAS scores range from 0 to 6 point/day. […] Patients were to complete the UAS using the e-diary. […] The following secondary endpoints were to be analyzed using the same approach as for the primary endpoint: • Change from baseline in UAS7 at Week 4 • Change from baseline in UAS7 at Week 12 (for US and US reference countries) • Change from baseline in ISS7 at Week 12 (except US and US reference countries) • Change from baseline in HSS7 at Week 12 The following responder secondary endpoints were to be analyzed using the Cochran-Mantel-Haenszel test adjusted by region: • Proportion of participants with UAS7<6 at Week 12 • Proportion of participants with UAS7=0 at Week 12 Participants who received selected prohibited medications and/or rescue medications were to be considered as non-responders for time points after the medication usage. For other participants, all available data including those collected during the off-treatment period were to be used to determine the responder/non-responder status. Missing data were to be considered as non-responders.

[1] = Ethnicity Non-Hispanic, 400 mg TID
[2] = History of angioedema No, 400 mg BID
[3] = History of angioedema No, 400 mg QPM
[4] = History of angioedema No, 400 mg TID
[5] = History of angioedema Yes, 400 mg BID
[6] = History of angioedema Yes, 400 mg QPM
[7] = History of angioedema Yes, 400 mg TID
[8] = Race All the Others, 400 mg BID
[9] = Race All the Others, 400 mg QPM
[10] = Race All the Others, 400 mg TID
[11] = Region Eastern Europe, 400 mg BID
[12] = Region Eastern Europe, 400 mg QPM
[13] = Region Eastern Europe, 400 mg TID
[14] = Region Latin America, 400 mg BID
[15] = Region Latin America, 400 mg QPM

CC(C)(C=C(C#N)C(=O)N1CCC[C@@H](n2nc(-c3ccc(Oc4ccccc4)cc3F)c3c(N)ncnc32)C1)N1CCN(C2COC2)CC1 [rilzabrutinib, (R)-2-[3-[4-amino-3-(2-fluoro-4-phenoxy-phenyl)pyrazolo[3,4-d]pyrimidin-1-yl]piperidine-1-carbonyl]-4-methyl-4-[4-(oxetan-3-yl)piperazin-1-yl]pent-2-enenitrile]
Change from Baseline in UAS7 at Week 12: Mean (SD) (Ethnicity Non-Hispanic, 400 mg QPM): −10.78 (9.25) | Change from Baseline in UAS7 at Week 12: LS Mean (SE) [1]: −19.24 (2.48) | Change from Baseline in UAS7 at Week 12: Mean (SD) [1]: −22.02 (10.28) | Change from Baseline in UAS7 at Week 12: Mean (SD) (Gender Female, 400 mg BID): −13.23 (11.66) | Change from Baseline in UAS7 at Week 12: Mean (SD) (Gender Female, 400 mg QPM): −10.93 (9.28) | Change from Baseline in UAS7 at Week 12: Mean (SD) (Gender Female, 400 mg TID): −20.41 (11.94) | Change from Baseline in UAS7 at Week 12: LS Mean (SE) (Gender Male, 400 mg BID): −16.67 (3.54) | Change from Baseline in UAS7 at Week 12: Mean (SD) (Gender Male, 400 mg BID): −16.87 (13.20) | Change from Baseline in UAS7 at Week 12: LS Mean (SE) (Gender Male, 400 mg QPM): −8.84 (4.15) | Change from Baseline in UAS7 at Week 12: Mean (SD) (Gender Male, 400 mg QPM): −9.58 (10.13) | Change from Baseline in UAS7 at Week 12: Mean (SD) (Gender Male, 400 mg TID): −12.72 (5.65) | Change from Baseline in UAS7 at Week 12: LS Mean (SE) [2]: −15.01 (2.39) | Change from Baseline in UAS7 at Week 12: LS Mean Diff vs. placebo (95% CI) [2]: −5.13 (−12.18, 1.92) | Change from Baseline in UAS7 at Week 12: Mean (SD) [2]: −17.10 (12.56) | Change from Baseline in UAS7 at Week 12: LS Mean (SE) [3]: −7.72 (2.58) | Change from Baseline in UAS7 at Week 12: LS Mean Diff vs. placebo (95% CI) [3]: 2.16 (−5.19, 9.52) | Change from Baseline in UAS7 at Week 12: Mean (SD) [3]: −9.12 (7.74) | Change from Baseline in UAS7 at Week 12: LS Mean (SE) [4]: −17.97 (2.40) | Change from Baseline in UAS7 at Week 12: LS Mean Diff vs. placebo (95% CI) [4]: −8.09 (−15.14, −1.03) | Change from Baseline in UAS7 at Week 12: Mean (SD) [4]: −20.20 (12.00) | Change from Baseline in UAS7 at Week 12: LS Mean (SE) [5]: −11.58 (3.69) | Change from Baseline in UAS7 at Week 12: LS Mean Diff vs. placebo (95% CI) [5]: −1.91 (−11.17, 7.35) | Change from Baseline in UAS7 at Week 12: Mean (SD) [5]: −8.60 (9.01) | Change from Baseline in UAS7 at Week 12: LS Mean (SE) [6]: −11.20 (2.97) | Change from Baseline in UAS7 at Week 12: LS Mean Diff vs. placebo (95% CI) [6]: −1.53 (−9.72, 6.65) | Change from Baseline in UAS7 at Week 12: Mean (SD) [6]: −13.08 (11.63) | Change from Baseline in UAS7 at Week 12: LS Mean (SE) [7]: −15.33 (3.68) | Change from Baseline in UAS7 at Week 12: LS Mean Diff vs. placebo (95% CI) [7]: −5.66 (−14.82, 3.50) | Change from Baseline in UAS7 at Week 12: Mean (SD) [7]: −16.58 (10.23) | Change from Baseline in UAS7 at Week 12: LS Mean (SE) [8]: −11.33 (3.66) | Change from Baseline in UAS7 at Week 12: LS Mean Diff vs. placebo (95% CI) [8]: −4.82 (−14.87, 5.24) | Change from Baseline in UAS7 at Week 12: Mean (SD) [8]: −11.25 (10.32) | Change from Baseline in UAS7 at Week 12: LS Mean (SE) [9]: −8.43 (3.32) | Change from Baseline in UAS7 at Week 12: LS Mean Diff vs. placebo (95% CI) [9]: −1.92 (−11.55, 7.72) | Change from Baseline in UAS7 at Week 12: Mean (SD) [9]: −9.59 (9.91) | Change from Baseline in UAS7 at Week 12: LS Mean (SE) [10]: −14.94 (3.44) | Change from Baseline in UAS7 at Week 12: LS Mean Diff vs. placebo (95% CI) [10]: 8.43 (−18.08, 1.23) | Change from Baseline in UAS7 at Week 12: Mean (SD) [10]: −14.86 (9.62) | Change from Baseline in UAS7 at Week 12: LS Mean (SE) (Race White, 400 mg BID): −15.38 (2.37) | Change from Baseline in UAS7 at Week 12: LS Mean Diff vs. placebo (95% CI) (Race White, 400 mg BID): −4.73 (−11.30, 1.84) | Change from Baseline in UAS7 at Week 12: Mean (SD) (Race White, 400 mg BID): −15.92 (12.79) | Change from Baseline in UAS7 at Week 12: LS Mean (SE) (Race White, 400 mg QPM): −9.37 (2.37) | Change from Baseline in UAS7 at Week 12: LS Mean Diff vs. placebo (95% CI) (Race White, 400 mg QPM): 1.28 (−5.33, 7.88) | Change from Baseline in UAS7 at Week 12: LS Mean (SE) (Race White, 400 mg TID): −17.97 (2.44) | Change from Baseline in UAS7 at Week 12: LS Mean Diff vs. placebo (95% CI) (Race White, 400 mg TID): −7.33 (−13.95, −0.70) | Change from Baseline in UAS7 at Week 12: Mean (SD) (Race White, 400 mg TID): −20.70 (11.84) | Change from Baseline in UAS7 at Week 12: LS Mean (SE) (Region Asia, 400 mg BID): −11.32 (3.76) | Change from Baseline in UAS7 at Week 12: LS Mean Diff vs. placebo (95% CI) (Region Asia, 400 mg BID): −4.86 (−15.18, 5.46) | Change from Baseline in UAS7 at Week 12: Mean (SD) (Region Asia, 400 mg BID): −11.25 (10.32) | Change from Baseline in UAS7 at Week 12: LS Mean (SE) (Region Asia, 400 mg QPM): −9.00 (3.50) | Change from Baseline in UAS7 at Week 12: Mean (SD) (Region Asia, 400 mg QPM): −9.59 (9.91) | Change from Baseline in UAS7 at Week 12: LS Mean (SE) (Region Asia, 400 mg TID): −14.25 (3.99) | Change from Baseline in UAS7 at Week 12: LS Mean Diff vs. placebo (95% CI) (Region Asia, 400 mg TID): −7.78 (−18.32, 2.76) | Change from Baseline in UAS7 at Week 12: LS Mean (SE) [11]: −6.34 (10.64) | Change from Baseline in UAS7 at Week 12: LS Mean Diff vs. placebo (95% CI) [11]: 13.37 (−19.79, 46.54) | Change from Baseline in UAS7 at Week 12: Mean (SD) [11]: −20.14 (18.13) | Change from Baseline in UAS7 at Week 12: LS Mean (SE) [12]: −5.35 (5.65) | Change from Baseline in UAS7 at Week 12: LS Mean Diff vs. placebo (95% CI) [12]: 14.37 (−6.40, 35.15) | Change from Baseline in UAS7 at Week 12: Mean (SD) [12]: −5.79 (5.45) | Change from Baseline in UAS7 at Week 12: LS Mean (SE) [13]: −25.97 (6.17) | Change from Baseline in UAS7 at Week 12: LS Mean Diff vs. placebo (95% CI) [13]: −6.26 (−24.55, 12.03) | Change from Baseline in UAS7 at Week 12: Mean (SD) [13]: −21.88 (11.40) | Change from Baseline in UAS7 at Week 12: LS Mean (SE) [14]: −9.26 (3.71) | Change from Baseline in UAS7 at Week 12: LS Mean Diff vs. placebo (95% CI) [14]: 2.62 (−7.19, 12.43) | Change from Baseline in UAS7 at Week 12: Mean (SD) [14]: −10.23 (11.81) | Change from Baseline in UAS7 at Week 12: LS Mean (SE) [15]: −10.74 (3.14) | Change from Baseline in UAS7 at Week 12: LS Mean Diff vs. placebo (95% CI) [15]: 1.14 (−7.86, 10.15)
